Measured values from ChEMBL document CHEMBL2321831, “Design, synthesis, and biological evaluations of novel 7-[7-amino-7-methyl-5-azaspiro[2.4]heptan-5-yl]-8-methoxyquinolines with potent antibacterial activity against respiratory pathogens” (J Med Chem, 2013).

Tests used:
[1] = AUC (0 to 8 hrs) in Crj:CD rat liver at 5 mg/kg, po; type: ADME, organism-based; design: time < 8 hr, dose 5 mg/kg, route oral
[2] = Drug recovery in cynomolgus monkey urine at 5 mg/kg, po after 24 hrs; type: ADME, organism-based, Macaca fascicularis; design: dose 5 mg/kg, route oral; conditions: read-out: Drug recovery
[3] = AUC (0 to 8 hrs) in Crj:CD rat kidney at 5 mg/kg, po; type: ADME, organism-based; design: time < 8 hr, dose 5 mg/kg, route oral
[4] = Bioavailability in cynomolgus monkey at 5 mg/kg, po; type: ADME, organism-based, Macaca fascicularis; conditions: in vivo
[5] = AUC (0 to 24 hrs) in cynomolgus monkey serum at 5 mg/kg, po; type: ADME, organism-based, Macaca fascicularis, Plasma; design: time < 24 hr, dose 5 mg/kg, route oral
[6] = Cmax in cynomolgus monkey serum at 5 mg/kg, po; type: ADME, organism-based, Macaca fascicularis; design: dose 5 mg/kg, route oral
[7] = AUC (0 to 8 hrs) in cynomolgus monkey serum at 5 mg/kg, iv; type: ADME, organism-based, Macaca fascicularis, Plasma; design: time < 8 hr, dose 5 mg/kg, route intravenous
[8] = Drug uptake in cynomolgus monkey serum at 5 mg/kg, iv after 5 mins; type: ADME, organism-based, Macaca fascicularis; design: dose 5 mg/kg, route intravenous; conditions: read-out: Drug uptake
[9] = Cmax in Crj:CD rat serum at 5 mg/kg, po; type: ADME, organism-based; design: dose 5 mg/kg, route oral
[10] = Drug recovery in cynomolgus monkey urine at 5 mg/kg, iv after 24 hrs; type: ADME, organism-based, Macaca fascicularis; design: dose 5 mg/kg, route intravenous; conditions: read-out: Drug recovery
[11] = Drug recovery in Crj:CD rat urine at 5 mg/kg, po after 24 hrs; type: ADME, organism-based; design: dose 5 mg/kg, route oral; conditions: read-out: Drug recovery
[12] = AUC (0 to 8 hrs) in Crj:CD rat lung at 5 mg/kg, po; type: ADME, organism-based; design: time < 8 hr, dose 5 mg/kg, route oral

COc1c(N2C[C@@H]3CCCN[C@@H]3C2)c(F)cc2c(=O)c(C(=O)O)cn(C3CC3)c12.Cl.O [MOXIFLOXACIN HYDROCHLORIDE HYDRATE]
AUC(0-t) at 8 h [1]: 24.5 µg·h/mL
dose excreted at 24 h [2]: 8.1%
AUC(0-t) at 8 h [3]: 30.3 µg·h/mL
bioavailability [4]: 61%
AUC(0-t) at 24 h [5]: 6.63 µg·h/mL
Cmax [6]: 1.03 µg/mL
AUC(0-t) at 8 h [7]: 10.9 µg·h/mL
concentration at 5 min [8]: 2.36 µg/mL
Cmax [9]: 1.49 µg/mL
dose excreted at 24 h [10]: 11%
dose excreted at 24 h [11]: 25.7%
AUC(0-t) at 8 h [12]: 15.2 µg·h/mL
